Here are results for 1 compound from patent US10946012B2, “Methods for inducing tumor regression, inhibiting tumor growth, and inducing apoptosis in breast tumors with geranylgeranyltransferase I inhibitors” (H. Lee Moffitt Cancer Center and Research Institute, Inc., priority 2009, dated 2021).

In experiment [1] the test system is MDA-MB-231, SK-Br3 and BT-474 breast cancer cells. The experiment in a line: Effects in other human breast cancer cell lines. The format is cell-based. Conditions: 50 μM; all three cell lines. Here is the method: Human MDA-MB-468 and MDA-MB-231 breast cancer cells and murine NIH 3T3 cells were obtained from the ATCC and cultured in DMEM medium. Human SK-Br3 and BT-474 breast cancer cells (ATCC) were cultured in McCoy's 5a medium and Hybri-Care medium, respectively. Mouse embryonic fibroblast (MEF) cells from p27 wild-type and p27 null mice were grown in DMEM. All media were supplemented with 10% fetal calf serum, 10 units/ml penicillin, and 10 μg/ml streptomycin. Subconfluent cells were treated with different concentrations of GGTI, FTI or DMSO vehicle for specific time periods. After treatment, cells were harvested by trypsinization.
To prepare whole cell lysates, cells were trypsinized, washed with phosphate buffered saline (PBS) twice, and lysed in 30 mM Hepes, pH 7.5, 10 mM NaCl, 5 mM MgCl2, 25 mM NaF, 1 mM EGTA, 1% Triton-X-100, 10% glycerol, protease inhibitor cocktail, 2 mM PMSF, 2 mM Na3VO4, and 6.4 mg/ml p-nitrophenylphosphate. […] The protein concentration was determined by the Bradford assay. […] Select bands were quantified using AlphaEaseFC densitometry software (AlphaInnotech, San Leandro, Calif.).
Adherent cells were harvested by trypsinization and diluted with 0.4% Trypan Blue dye and counted on a hemacytometer. Cells excluding the dye were scored as live cells, whereas cells absorbing the dye were scored as dead cells. […]

The subject of experiment [2] is MDA-MB-468 breast cancer cells. As to the kind of experiment: Cell cycle analysis in MDA-MB-468 cells. The format is cell-based, human. Particulars: 50 μM, control 51%. Here is the method: Cell cycle analysis based on DNA content was performed as described previously. Liang, J., et al., PKB/Akt phosphorylates p27, impairs nuclear import of p27 and opposes p27-mediated G1 arrest, Nat Med 8:1153-60 (2002). At each time point, cells were harvested, counted, and washed twice with PBS. Cells (2-3×10^6) were suspended in 0.5 ml PBS, fixed in 5 ml of 70% ethanol overnight at −20° C., centrifuged, re-suspended again in 1 ml of propidium iodide staining solution (50 μg/ml propidium iodide, 100 units/ml RNase A and 1 mg/ml of glucose in PBS), and incubated at room temperature for 30 min. The cells were then analyzed for cell cycle distribution using FACScan (BD Biosciences) and ModFit LT cell cycle analysis software (Verity Software, Topsham, Me.).

Experiment [3] has as its system MDA-MB-231 breast cancer tumors. As to the kind of experiment: Anti-tumor activity in the nude mouse tumor xenograft model. The format is in vivo, nude mice. Conditions: 100 mg/kg daily i.p. As to the method: Nude mice (nu/nu, Charles River, Wilmington, Mass.) were maintained in accordance with the Institutional Animal Care and Use Committee (IACUC) procedures and guidelines. MDA-MB-231 cells were harvested via trypsinization, pelleted at 805×g for 5 min, and re-suspended in a 50:50 mixture of sterile PBS and Matrigel (BD Biosciences) at 10×10^6 cells per 100 μl. A volume of 100 μl (˜10×10^6 cells) was injected orthotopically into the upper mammary fat pads of nude mice. The tumor xenografts were monitored by electronic caliper measurements and tumor volume (V) was calculated using the formula V=W^2L/2, where width (W) is […]. When the tumors reached ˜100 mm^3, the animals were randomized and injected intraperiteoneally daily with vehicle (70% DMSO), or 100 mg/kg GGTI-2417 or GGTI-2418, or every third day with GGTI-2418 (200 mg/kg. Tumors were measured every third day for 12-18 days.

Regarding `COC(=O)[C@H](CC(C)C)NC(=O)N1CCN(Cc2nc[nH]c2C)C(=O)[C@@H]1Cc1ccccc1` [GGTI-2417], in experiment [1], the cell proliferation entry was “inhibited cell proliferation” and the p27 protein levels result is recorded as “induced p27 protein levels”. In addition, the “fraction of cells in G0/G1” value in experiment [2] came to 78%. The compound further registered a tumor growth inhibition in experiment [3] of 76%.
